Legend:
ß5i of IP = settings: cited from earlier work; for RA at 10 µM against ß5i of IP: residual activity of β5i in the presence of 10 μM compound; for Ki: read-out: Ki against ß5i of IP; for IC50: read-out: IC50 against ß5i of IP
Mtb proteasome = molecular target: T1, Mtb proteasome (Mycobacterium tuberculosis, UniProt P9WHT9); assay: biochemical; format: biochemical; settings: for IC50: 50 µM Suc-LLVY-AMC, 30 min preincubation, 37 °C, triplicate, read-out: IC50 against the Mtb proteasome; for Hill Coefficient: from IC50 curve, Mtb proteasome
T1 construct: made in house
T1 sequence (P9WHT9 whole entry, looked up): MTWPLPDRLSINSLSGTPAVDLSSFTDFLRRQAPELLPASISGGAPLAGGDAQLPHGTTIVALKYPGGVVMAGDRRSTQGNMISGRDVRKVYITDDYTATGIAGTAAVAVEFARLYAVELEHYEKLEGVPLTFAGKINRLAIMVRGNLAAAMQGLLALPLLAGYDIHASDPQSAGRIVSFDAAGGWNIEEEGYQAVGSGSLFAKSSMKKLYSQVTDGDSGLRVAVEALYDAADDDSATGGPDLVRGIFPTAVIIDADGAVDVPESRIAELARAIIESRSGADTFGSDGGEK

SMILES: Cc1c(CCC(=O)O)c(=O)oc2cc3c(cc12)C(c1ccccc1)CO3 (racemic) [Compound 91]
- RA at 10 µM against ß5i of IP (ß5i of IP): 94%
- RA at 100 µM against Mtb (Mtb proteasome): 95%

SMILES: Cc1c(CCC(=O)ON2C(=O)CCC2=O)c(=O)oc2cc3c(cc12)C(c1ccccc1)CO3 (racemic) [Compound 92]
- RA at 10 µM against ß5i of IP (ß5i of IP): 36%
- RA at 100 µM against Mtb (Mtb proteasome): 95%

SMILES: Cc1c(CCC(=O)O)c(=O)oc2cc3occ(-c4ccc(Br)cc4)c3cc12 [Compound 1]
- Ki (ß5i of IP): 137 µM
- IC50 (Mtb proteasome): 39 ± 7 µM
- Hill Coefficient (Mtb proteasome): 0.69

SMILES: Cc1c(CCC(=O)O)c(=O)oc2cc3occ(-c4ccc(Cl)cc4)c3cc12 [Compound 2]
- RA at 10 µM against ß5i of IP (ß5i of IP): 83%
- IC50 (Mtb proteasome): 15 ± 2 µM
- Hill Coefficient (Mtb proteasome): 1.75

SMILES: Cc1c(CCC(=O)O)c(=O)oc2cc3occ(-c4ccc(C(=O)O)cc4)c3cc12 [Compound 3]
- RA at 10 µM against ß5i of IP (ß5i of IP): 53%
- IC50 (Mtb proteasome): 31 ± 5 µM
- Hill Coefficient (Mtb proteasome): 1.22

SMILES: Cc1c(CC(=O)O)c(=O)oc2cc3occ(-c4ccc(Br)cc4)c3cc12 [Compound 4]
- Ki (ß5i of IP): 12.7 µM
- IC50 (Mtb proteasome): 4 ± 3 µM
- Hill Coefficient (Mtb proteasome): 1.59

SMILES: Cc1c(CCC(=O)O)c(=O)oc2c(C)c3occ(-c4ccc(Br)cc4)c3cc12 [Compound 5]
- RA at 10 µM against ß5i of IP (ß5i of IP): 93%
- IC50 (Mtb proteasome): 17 ± 3 µM
- Hill Coefficient (Mtb proteasome): 0.70

SMILES: Cc1c(C(=O)O)c(=O)oc2cc3occ(-c4ccccc4)c3cc12 [Compound 6]
- RA at 10 µM against ß5i of IP (ß5i of IP): 82%
- IC50 (Mtb proteasome): 2.2 ± 0.3 µM
- Hill Coefficient (Mtb proteasome): 0.70

SMILES: Cc1c(CCC(=O)N(C)CC#N)c(=O)oc2cc3occ(C(C)(C)C)c3cc12 [Compound 7]
- RA at 10 µM against ß5i of IP (ß5i of IP): 100%
- IC50 (Mtb proteasome): 8 ± 5 µM
- Hill Coefficient (Mtb proteasome): 0.42

SMILES: Cc1c(CCC(=O)NCC#N)c(=O)oc2cc3occ(-c4ccccc4)c3cc12 [Compound 9]
- RA at 10 µM against ß5i of IP (ß5i of IP): 66%
- IC50 (Mtb proteasome): 2 ± 2 µM
- Hill Coefficient (Mtb proteasome): 2.27

SMILES: Cc1cc(-c2coc3cc4oc(=O)c(CC(=O)NCC#N)c(C)c4cc23)c(C)o1 [Compound 10]
- RA at 10 µM against ß5i of IP (ß5i of IP): 100%
- IC50 (Mtb proteasome): 3 ± 2 µM
- Hill Coefficient (Mtb proteasome): 4.46

SMILES: Cc1c(CCC(=O)ON2C(=O)CCC2=O)c(=O)oc2cc3occ(C4CCCCC4)c3cc12 [Compound 12]
- IC50 (ß5i of IP): 1.8 µM
- IC50 (Mtb proteasome): 5 ± 2 µM
- Hill Coefficient (Mtb proteasome): 1.05

SMILES: Cc1cc(-c2coc3cc4oc(=O)c(CC(=O)ON5C(=O)CCC5=O)c(C)c4cc23)c(C)o1 [Compound 14]
- IC50 (ß5i of IP): 6.9 µM
- IC50 (Mtb proteasome): 9 ± 5 µM
- Hill Coefficient (Mtb proteasome): 2.42

SMILES: Cc1c(CCC(=O)O)c(=O)oc2cc3occ(-c4ccccc4)c3cc12 [Compound 16]
- IC50 (ß5i of IP): 1.6 µM
- Ki (ß5i of IP): 1.6 ± 0.7 µM
- RA at 100 µM against Mtb (Mtb proteasome): 72%
- inhibition of the Mtb proteasome (Mtb proteasome): did not inhibit

SMILES: COc1ccc(-c2coc3cc4oc(=O)c(CCC(=O)O)c(C)c4cc23)cc1 [Compound 17]
- RA at 10 µM against ß5i of IP (ß5i of IP): 84%
- RA at 100 µM against Mtb (Mtb proteasome): 100%

SMILES: COc1cccc(-c2coc3cc4oc(=O)c(CCC(=O)O)c(C)c4cc23)c1 [Compound 18]
- Ki (ß5i of IP): 29.6 ± 3.9 µM
- RA at 100 µM against Mtb (Mtb proteasome): 100%

SMILES: Cc1c(CCC(=O)O)c(=O)oc2cc3occ(C(C)(C)C)c3cc12 [Compound 19]
- RA at 10 µM against ß5i of IP (ß5i of IP): 83%
- RA at 100 µM against Mtb (Mtb proteasome): 95%

SMILES: Cc1coc2cc3oc(=O)c(CCC(=O)O)c(C)c3cc12 [Compound 20]
- RA at 10 µM against ß5i of IP (ß5i of IP): 94%
- RA at 100 µM against Mtb (Mtb proteasome): 93%

SMILES: Cc1cc(-c2coc3cc4oc(=O)c(CCC(=O)O)c(C)c4cc23)c(C)s1 [Compound 21]
- Ki (ß5i of IP): 52.3 ± 18 µM
- RA at 100 µM against Mtb (Mtb proteasome): 99%

SMILES: Cc1c(CCC(=O)O)c(=O)oc2cc3occ(-c4ccco4)c3cc12 [Compound 22]
- Ki (ß5i of IP): 116 ± 27 µM
- RA at 100 µM against Mtb (Mtb proteasome): 55%

SMILES: Cc1c(CCC(=O)O)c(=O)oc2c(C)c3occ(-c4ccc(C(=O)O)cc4)c3cc12 [Compound 39]
- RA at 100 µM against Mtb (Mtb proteasome): 98%

SMILES: Cc1coc2cc3oc(=O)c(CC(=O)NCC#N)c(C)c3cc12 [Compound 62]
- RA at 100 µM against Mtb (Mtb proteasome): 60%

SMILES: Cc1c(CN)c(=O)oc2cc3occ(-c4ccccc4)c3cc12 [Compound 80]
- RA at 100 µM against Mtb (Mtb proteasome): 55%
